The results in this text go back to patent US12139474B2, “LPA receptor antagonists and uses thereof” (Gilead Sciences, Inc., priority 2020, dated 2024).

T1 sequence (Q92633 whole entry): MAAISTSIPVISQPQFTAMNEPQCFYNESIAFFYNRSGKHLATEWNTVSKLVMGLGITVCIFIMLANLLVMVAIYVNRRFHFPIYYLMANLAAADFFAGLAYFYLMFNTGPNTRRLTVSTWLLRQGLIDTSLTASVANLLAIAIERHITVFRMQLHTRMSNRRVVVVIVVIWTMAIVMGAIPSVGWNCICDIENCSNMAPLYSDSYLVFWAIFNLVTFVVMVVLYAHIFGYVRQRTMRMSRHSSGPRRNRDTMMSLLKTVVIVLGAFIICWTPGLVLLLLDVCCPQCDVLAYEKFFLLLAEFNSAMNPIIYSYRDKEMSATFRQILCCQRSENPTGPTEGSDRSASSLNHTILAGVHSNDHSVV

The assay has as its target T1, human LPAR1 (Homo sapiens, UniProt Q92633).
T1 construct: host or cells: CHO-K1
Description: LPAR1 intracellular calcium mobilization assay (antagonist mode). To be noted: CHO-K1 EDG2 cells expressing human LPAR1; 60 min pre-incubation with compound, then LPA 18:2 at EC80 (100 nM); FLIPR calcium signal. In kind it is cell-based. As for the experimental part:
In vitro LPAR1 activity was measured in an intracellular calcium mobilization assay.
CHO-K1 EDG2 cells (DiscoverX cat #93-0644C2) expressing human LPAR1 (NM_001401.3) were seeded in a total volume of 25 μL of Dulbecco's Modification of Eagle's Medium (DMEM) with 10% Fetal Bovine Serum, 1× PenStrepGlutamine, 300 ug/ml Hygromycin, and 800 ug/ml G418 into 384-well tissue culture plate (Grenier #781091) at 15,000 cells/well and incubated at 37° C. overnight. Prior to testing, 25 μL Calcium Loading Dye Component A (FLIPR Calcium 6 Assay Kit Molecular Device #R8190) and 2.5 mM Probenecid (Invitrogen #P36400, prepared fresh) in Hank's Balanced Salt Solution (Corning #21-023-CV), 20 mM HEPES (Corning #25-060-CI), 0.1% Bovine Serum Albumin (Sigma-Aldrich #A7906-500G) was add to the cells for 60 minutes at 37° C.
Agonist dose curves of LPA 18:2 (Avanti Polar Lipids cat #857138, 0.5 nM to 10 μM) were recorded to determine the LPA 18:2 EC80 for subsequent antagonist assays. For agonist dose curves, cells were removed from the incubator 2 hours after dye loading and transferred to the FLIPR Tetra instrument (Molecular Devices, San Jose, CA). Calcium mobilization was monitored for 5 min and 10 μL 6× LPA in HBSS/20 mM Hepes/0.1% bovine serum albumin (BSA) was added to the cells 5 seconds into the assay.
To determine the LPAR1 antagonist activity of test compounds, cells were pre-incubated with test compound at a dose range of 0.5 nM to 10 μM, followed by LPA at EC80 concentration (100 nM). After dye loading, cells were removed from the incubator and 0.3 μL of 200× antagonist was added. Cells were incubated for 60 minutes at 37° C. Antagonist activity was measured on a FLIPR Tetra. Calcium mobilization was monitored for 3.5 minutes and 10 μL 6× EC80 LPA in HBSS, 20 mM HEPES, and 0.1% BSA was added to the cells 5 seconds into the assay. Signal amplitude (Maximum minus minimum) values were plotted against log10 of antagonist concentration using Dose Response Tool (Gilead Sciences Inc.) to determine EC50.
To assess the antagonistic potential of exemplified compounds EC50 values were determined for Compounds 1 to 32 in the LPAR1 calcium mobilization assay. The compound numbers correspond to the compound numbers in Examples 1 to 33.
`C[C@@H](OC(=O)Nc1c(-c2ccc3c(n2)OCC(=O)N3)nnn1C)c1cc(F)cnc1Cl` [Compound 1, (R)-1-(2-chloro-5-fluoropyridin-3-yl)ethyl (1-methyl-4-(2-oxo-2,3-dihydro-1H-pyrido[2,3-b][1,4]oxazin-6-yl)-1H-1,2,3-triazol-5-yl)carbamate]: the EC50 amounted to 85 nM.
To `CC(OC(=O)Nc1c(-c2ccc3c(n2)OCC(=O)N3)nnn1C)c1cc(F)ncc1F` (stereo not shown) [Compound 2, 1-(2,5-difluoropyridin-4-yl)ethyl(1-methyl-4-(2-oxo-2,3-dihydro-1H-pyrido[2,3-b][1,4]-oxazin-6-yl)-1H-1,2,3-triazol-5-yl)carbamate] belongs 1980 nM.
The value for `C[C@@H](OC(=O)Nc1c(-c2ccc3c(n2)OCC(=O)N3)nnn1C)c1cc(F)cnc1F` [Compound 3, (R)-1-(2,5-difluoropyridin-3-yl)ethyl(1-methyl-4-(2-oxo-2,3-dihydro-1H-pyrido-[2,3-b][1,4]oxazin-6-yl)-1H-1,2,3-triazol-5-yl)carbamate] was 66 nM; that for `C[C@@H](OC(=O)Nc1c(-c2ccc3c(n2)OCC(=O)N3)nnn1C)c1cc(Cl)cnc1F` [Compound 4, (R)-1-(5-chloro-2-fluoropyridin-3-yl)-ethyl(1-methyl-4-(2-oxo-2,3-dihydro-1H-pyrido[2,3-b][1,4]-oxazin-6-yl)-1H-1,2,3-triazol-5-yl)-carbamate] was 118 nM.
The value for `Cn1nnc(-c2ccc3c(n2)OCC(=O)N3)c1NC(=O)O[C@H](CF)c1ccccc1` [Compound 5, (S)-2-fluoro-1-phenylethyl (1-methyl-4-(2-oxo-2,3-dihydro-1H-pyrido[2,3-b][1,4]-oxazin-6-yl)-1H-1,2,3-triazol-5-yl)-carbamate] was 100 nM; that for `C[C@@H](OC(=O)Nc1c(-c2cc3c(cc2F)NC(=O)CC3)nnn1C)c1cccnc1Cl` [Compound 6, [(1R)-1-(2-chloro-3-pyridyl)ethyl] N-[5-(7-fluoro-2-oxo-3,4-dihydro-1H-quinolin-6-yl)-3-methyl-triazol-4-yl]carbamate] was 115 nM; that for `C[C@@H](OC(=O)Nc1c(-c2ccc3c(c2F)CCC(=O)N3)nnn1C)c1cccnc1Cl` [Compound 7, (R)-1-(2-chloropyridin-3-yl)ethyl (4-(5-fluoro-2-oxo-1,2,3,4-tetrahydroquinolin-6-yl)-1-methyl-1H-1,2,3-triazol-5-yl)carbamate] was 1230 nM.
As for `C[C@@H](OC(=O)Nc1c(-c2cnc3c(c2)OCC(=O)N3)nnn1C)c1cccnc1Cl` [Compound 8, (R)-1-(2-chloropyridin-3-yl)ethyl (1-methyl-4-(3-oxo-3,4-dihydro-2H-pyrido[3,2-b][1,4]oxazin-7-yl)-1H-1,2,3-triazol-5-yl)carbamate], the 50% effective concentration (EC50) amounted to 765 nM.
The value for `C[C@@H](OC(=O)Nc1c(-c2ccc3c(c2)C(C)(C)OC(=O)N3)nnn1C)c1cccnc1F` [Compound 9, (R)-1-(2-fluoropyridin-3-yl)ethyl (4-(4,4-dimethyl-2-oxo-1,4-dihydro-2H-benzo[d][1,3]oxazin-6-yl)-1-methyl-1H-1,2,3-triazol-5-yl)carbamate] was 4610 nM; that for `C[C@@H](OC(=O)Nc1c(-c2ccc3c(c2)CCC(=O)N3)nnn1C)c1ccccc1Cl` [Compound 11, (R)-1-(2-chlorophenyl)ethyl (1-methyl-4-(2-oxo-1,2,3,4-tetrahydroquinolin-6-yl)-1H-1,2,3-triazol-5-yl)carbamate] was 46 nM.
Regarding `C[C@@H](OC(=O)Nc1c(-c2ccc3c(c2)COC(=O)N3)nnn1C)c1ccccc1Cl` [Compound 12, (R)-1-(2-chlorophenyl)ethyl(1-methyl-4-(2-oxo-1,4-dihydro-2H-benzo[d][1,3]-oxazin-6-yl)-1H-1,2,3-triazol-5-yl)-carbamate], the EC50 was determined as 218 nM.
To `C[C@@H](OC(=O)Nc1c(-c2ccc3c(c2)OCC(=O)N3)nnn1C)c1ccccc1Cl` [Compound 13, (R)-1-(2-chlorophenyl)ethyl(1-methyl-4-(3-oxo-3,4-dihydro-2H-benzo[b][1,4]-oxazin-7-yl)-1H-1,2,3-triazol-5-yl)-carbamate] belongs 38 nM; to `C[C@@H](OC(=O)Nc1c(-c2ccc3c(c2)CC(=O)N3)nnn1C)c1ccccc1Cl` [Compound 14, (R)-1-(2-chlorophenyl)ethyl(1-methyl-4-(2-oxoindolin-5-yl)-1H-1,2,3-triazol-5-yl)carbamate], 4160 nM; to `C[C@@H](OC(=O)Nc1c(-c2ccc3[nH]c(=O)ccc3c2)nnn1C)c1ccccc1Cl` [Compound 15, (R)-1-(2-chlorophenyl)ethyl(1-methyl-4-(2-oxo-1,2-dihydroquinolin-6-yl)-1H-1,2,3-triazol-5-yl)carbamate], 565 nM.
The value for `C[C@@H](OC(=O)Nc1c(-c2ccc3c(c2)COC(=O)N3)nnn1C)c1cccnc1Cl` [Compound 16, (R)-1-(2-chloropyridin-3-yl)ethyl (1-methyl-4-(2-oxo-1,4-dihydro-2H-benzo[d][1,3]-oxazin-6-yl)-1H-1,2,3-triazol-5-yl)-carbamate] was 525 nM; that for `C[C@@H](OC(=O)Nc1c(-c2ccc3c(c2)CCC(=O)N3)nnn1C)c1cccnc1Cl` [Compound 17, (R)-1-(2-chloropyridin-3-yl)ethyl (1-methyl-4-(2-oxo-1,2,3,4-tetrahydroquinolin-6-yl)-1H-1,2,3-triazol-5-yl)-carbamate] was 390 nM; that for `C[C@@H](OC(=O)Nc1c(-c2ccc3c(c2)OCC(=O)N3)nnn1C)c1cccnc1Cl` [Compound 18, (R)-1-(2-chloropyridin-3-yl)ethyl (1-methyl-4-(3-oxo-3,4-dihydro-2H-benzo[b][1,4]-oxazin-7-yl)-1H-1,2,3-triazol-5-yl)-carbamate] was 265 nM.
As for `C[C@@H](OC(=O)Nc1c(-c2ccc3c(c2)N(C)CC(=O)N3)nnn1C)c1ccccc1Cl` [Compound 19, (R)-1-(2-chlorophenyl)ethyl (1-methyl-4-(4-methyl-2-oxo-1,2,3,4-tetrahydroquinoxalin-6-yl)-1H-1,2,3-triazol-5-yl)carbamate], the EC50 came out at 265 nM.
To `C[C@@H](OC(=O)Nc1c(-c2ccc3c(c2)CCC(=O)N3)nnn1C)c1cc(F)cnc1Cl` [Compound 20, (R)-1-(2-chloro-5-fluoropyridin-3-yl)ethyl (1-methyl-4-(2-oxo-1,2,3,4-tetrahydroquinolin-6-yl)-1H-1,2,3-triazol-5-yl)carbamate] belongs 118 nM; to `C[C@@H](OC(=O)Nc1c(-c2ccc3c(n2)OC(C)(C)C(=O)N3)nnn1C)c1cccnc1Cl` [Compound 21, (R)-1-(2-chloropyridin-3-yl)ethyl (4-(3,3-dimethyl-2-oxo-2,3-dihydro-1H-pyrido[2,3-b][1,4]oxazin-6-yl)-1-methyl-1H-1,2,3-triazol-5-yl)carbamate], 2280 nM.
To `CC1Oc2nc(-c3nnn(C)c3NC(=O)O[C@H](C)c3cccnc3Cl)ccc2NC1=O` (stereo partly drawn) [Compound 22, (R)-1-(2-chloropyridin-3-yl)ethyl (1-methyl-4-(3-methyl-2-oxo-2,3-dihydro-1H-pyrido[2,3-b][1,4]oxazin-6-yl)-1H-1,2,3-triazol-5-yl)carbamate] belongs 86 nM.
To `C[C@@H](OC(=O)Nc1c(-c2ccc3c(n2)OCC(=O)N3)nnn1C)c1cccnc1Cl` [Compound 24, (R)-1-(2-chloropyridin-3-yl)ethyl (1-methyl-4-(2-oxo-2,3-dihydro-1H-pyrido[2,3-b][1,4]oxazin-6-yl)-1H-1,2,3-triazol-5-yl)carbamate] belongs 123 nM.
Turning to `C[C@@H](OC(=O)Nc1c(-c2ccc3c(n2)COC(=O)N3)nnn1C)c1cccnc1Cl` [Compound 25, [(1R)-1-(2-chloro-3-pyridyl)ethyl] N-[3-methyl-5-(2-oxo-1,4-dihydropyrido[3,2-d][1,3]oxazin-6-yl)triazol-4-yl]carbamate], the EC50 is 140 nM.
The value for `CCC1Oc2nc(-c3nnn(C)c3NC(=O)O[C@H](C)c3cccnc3Cl)ccc2NC1=O` (stereo partly drawn) [Compound 26, (R)-1-(2-chloropyridin-3-yl)ethyl (4-(3-ethyl-2-oxo-2,3-dihydro-1H-pyrido[2,3-b][1,4]oxazin-6-yl)-1-methyl-1H-1,2,3-triazol-5-yl)carbamate] was 3780 nM; that for `C[C@@H](OC(=O)Nc1c(-c2ccc3c(n2)OC(c2ccccc2)C(=O)N3)nnn1C)c1cccnc1Cl` (stereo partly drawn) [Compound 27, (R)-1-(2-chloropyridin-3-yl)ethyl (1-methyl-4-(2-oxo-3-phenyl-2,3-dihydro-1H-pyrido[2,3-b][1,4]oxazin-6-yl)-1H-1,2,3-triazol-5-yl)carbamate] was 135 nM.
